# What was measured:
# [1] = target: T1, human factor Xa (Homo sapiens, UniProt P00742); assay: Factor Xa IC50, cleavage of chromogenic substrate S2765; assay type: biochemical
# T1 construct: 145 μL human factor Xa (1 nM final, Enzyme Research Laboratories); purchased Enzyme Research Laboratories
# Protocol: The ability of compounds to act as inhibitors of human factor Xa catalytic activity is assessed by determination of that concentration of test substance that inhibits by 50% (IC50) the ability of human factor Xa to cleave the chromogenic substrate S2765 (N-CBz-D-Arg-L-Gly-L-Arg-p-nitroanilide. 2HCl, DiaPharma). Typically, 145 μL human factor Xa (1 nM final, Enzyme Research Laboratories) in 10 mM HEPES, 150 mM NaCl, 0.1% BSA, pH 7.4 (HBSA buffer), and 5 μL of test substance in DMSO (2% final) are incubated for 60 minutes at room temperature. Following preheating to 37° C. for 5 minutes, to this mixture is added 100 μL of S2765 in HBSA buffer. The velocity of S2765 hydrolysis is determined at 37° C. by measuring the initial rate of change of the optical density at OD405 nm every 10 seconds for 5 minutes using a ThermoMax® Kinetic Microplate Reader.
# [2] = target: T2, human thrombin (Homo sapiens, UniProt P00734); assay: Thrombin IC50, cleavage of Chromozym TH; assay type: biochemical
# T2 construct: purchased Enzyme Research Laboratories
# Protocol: The ability of compounds to act as inhibitors of human thrombin catalytic activity is assessed by determination of that concentration of test substance that inhibits by 50% (IC50) the ability of human thrombin to cleave the chromogenic substrate Chromozym TH (Tosyl-Gly-Pro-Arg-pNA*Ac, Boehringer Mannheim). Typically, 145 μL human thrombin (0.75 nM, Enzyme Research Laboratories) in a HPB buffer (10 mM HEPES, 100 mM NaCl, 0.05% BSA, 0.1% PEG-8000, pH 7.4) and 5 μL of test substance in DMSO (2% final) are incubated for 60 minutes at room temperature. Following preheating to 37° C. for 5 minutes, to this mixture is added 100 μL of Chromozym TH in HPB buffer. The velocity of Chromozym TH hydrolysis is determined at 37° C. by measuring the initial rate of change of the optical density at OD405 nm every 10 seconds for 5 minutes using a ThermoMax® Kinetic Microplate Reader.
# [3] = tested on: human trypsin; assay: Trypsin IC50, cleavage of S2222; assay type: biochemical
# Protocol: The ability of compounds to act as inhibitors of human trypsin catalytic activity is assessed by determination of that concentration of test substance that inhibits by 50% (IC50) the ability of human trypsin to cleave the chromogenic substrate S2222 (N-Bz-L-Ile-L-Glu-L-Gly-L-Arg-p-nitroanilide. HCl, DiaPharma). Typically, 145 μL human trypsin (0.5 nM final) in 10 mM HEPES, 150 mM NaCl, 0.1% BSA, and 5 μL of the test substance in DMSO (2% final) are incubated for 60 minutes at room temperature. Following preheating to 37° C. for 5 minutes, to this mixture is added 100 μL of S2222 in HBSA buffer (100 μM final), and the velocity of S2222 hydrolysis is determined at 37° C. by measuring the optical density at OD405 nm every 10 seconds over 5 minutes using a ThermoMax® Kinetic Microplate Reader.
# [4] = target: T3, human tissue factor/factor VIIa complex (Homo sapiens, UniProt P08709); assay: Tissue factor/factor VIIa inhibition, cleavage of Spectrozyme VIIa; assay type: biochemical; details: read-out: VIIa % inhib. @ 100 μM
# T3 construct: 50 μL human factor VIIa (Enzyme Research Laboratories); purchased Enzyme Research Laboratories (factor VIIa); American Diagnostica (recombinant tissue factor)
# T3 sequence (P08709 213-466 limits assumed): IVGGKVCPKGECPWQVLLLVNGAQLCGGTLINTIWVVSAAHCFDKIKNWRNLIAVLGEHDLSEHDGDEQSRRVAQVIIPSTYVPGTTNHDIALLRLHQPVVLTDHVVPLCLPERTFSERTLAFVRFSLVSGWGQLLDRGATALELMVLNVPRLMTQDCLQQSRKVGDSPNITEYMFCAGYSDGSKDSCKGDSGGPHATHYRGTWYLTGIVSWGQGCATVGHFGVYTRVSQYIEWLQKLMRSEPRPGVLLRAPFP
# T3 sequence (P08709 61-212 limits assumed): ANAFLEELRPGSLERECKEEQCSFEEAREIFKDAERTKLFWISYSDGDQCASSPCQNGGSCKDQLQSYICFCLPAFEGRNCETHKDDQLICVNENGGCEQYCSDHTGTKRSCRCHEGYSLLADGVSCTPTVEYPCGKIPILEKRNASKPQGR
# T3 sequence (P13726 33-295 partner): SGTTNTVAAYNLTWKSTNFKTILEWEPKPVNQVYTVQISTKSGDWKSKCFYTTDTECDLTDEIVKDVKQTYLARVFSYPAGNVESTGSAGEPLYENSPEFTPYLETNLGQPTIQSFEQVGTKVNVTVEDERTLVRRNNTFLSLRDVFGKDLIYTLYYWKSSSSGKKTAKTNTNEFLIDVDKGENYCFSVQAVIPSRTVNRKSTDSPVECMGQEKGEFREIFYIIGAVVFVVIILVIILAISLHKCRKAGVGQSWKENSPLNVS
# Protocol: The ability of compounds to act as inhibitors of the catalytic activity of human tissue factor/factor VIIa complex is assessed by determination of that concentration of test substance that inhibits by 50% (IC50 the ability of a complex of human recombinant tissue factor/factor VIIa to cleave the chromogenic substrate Spectrozyme VIIa (CH3SO2-D-CHA-Arg-pNA*AcOH, American Diagnostica). Typically, 50 μL human factor VIIa (Enzyme Research Laboratories) is incubated for 10 minutes as a 1:1 mixture (5 nM final each) with 95 μL recombinant human tissue factor (American Diagnostica) in a modified HBSA buffer (10 mM Hepes, 5 mM CaCl2, 0.1% BSA, pH 8.0). Then, 5 μL of the test substance in DMSO (2% final) is added and incubated for 60 minutes at room temperature. Following preheating to 37° C. for 5 minutes, to this mixture is added 100 μL of Spectrozyme VIIa (500 μM final) in modified HBSA, and the velocity of Spectrozyme VIIa hydrolysis is determined at 37° C. by measuring the optical density at an OD405 nm every 10 seconds over 5 minutes using a ThermoMax® Kinetic Microplate Reader.
# [5] = target: T4, human prothrombinase (PTase) complex (Homo sapiens, UniProt P00742); assay: In vitro assay for human prothrombinase; assay type: biochemical; details: PTase activity expressed by thrombin activity
# T4 construct: 2.5 pM human factor Xa (Enzyme Research Laboratories); purchased Enzyme Research Laboratories
# T4 sequence (P00742 235-488 limits assumed): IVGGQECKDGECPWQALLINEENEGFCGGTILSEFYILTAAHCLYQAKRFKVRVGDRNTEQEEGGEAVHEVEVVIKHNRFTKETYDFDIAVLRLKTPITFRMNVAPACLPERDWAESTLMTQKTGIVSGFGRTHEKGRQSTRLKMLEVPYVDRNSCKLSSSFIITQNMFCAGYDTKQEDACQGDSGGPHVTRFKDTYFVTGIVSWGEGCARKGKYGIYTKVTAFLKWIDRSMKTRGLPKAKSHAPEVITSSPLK
# T4 sequence (P00742 41-179 limits assumed): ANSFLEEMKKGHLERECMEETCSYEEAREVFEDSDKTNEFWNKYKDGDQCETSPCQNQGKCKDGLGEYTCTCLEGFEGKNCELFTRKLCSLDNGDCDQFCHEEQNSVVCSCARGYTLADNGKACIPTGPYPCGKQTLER
# T4 sequence (P12259 29-737 partner limits assumed): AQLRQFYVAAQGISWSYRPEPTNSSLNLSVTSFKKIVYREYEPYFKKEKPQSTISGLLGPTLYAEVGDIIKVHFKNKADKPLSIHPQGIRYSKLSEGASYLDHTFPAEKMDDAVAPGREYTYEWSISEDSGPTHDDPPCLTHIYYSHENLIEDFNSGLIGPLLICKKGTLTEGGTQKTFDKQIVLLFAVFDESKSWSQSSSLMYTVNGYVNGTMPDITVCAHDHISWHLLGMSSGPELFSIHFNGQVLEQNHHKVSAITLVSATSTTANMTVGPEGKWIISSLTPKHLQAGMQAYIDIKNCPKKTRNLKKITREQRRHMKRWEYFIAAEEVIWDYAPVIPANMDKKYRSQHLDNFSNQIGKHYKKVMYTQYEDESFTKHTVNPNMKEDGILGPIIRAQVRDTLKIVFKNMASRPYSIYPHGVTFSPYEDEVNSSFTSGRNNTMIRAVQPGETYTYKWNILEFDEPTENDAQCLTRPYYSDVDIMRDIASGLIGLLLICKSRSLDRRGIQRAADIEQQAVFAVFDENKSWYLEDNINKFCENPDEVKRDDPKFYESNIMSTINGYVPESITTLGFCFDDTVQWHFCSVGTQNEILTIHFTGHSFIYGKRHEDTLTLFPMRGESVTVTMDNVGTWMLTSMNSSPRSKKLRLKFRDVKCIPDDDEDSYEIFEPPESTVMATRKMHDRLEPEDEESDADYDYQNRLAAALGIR
# T4 sequence (P12259 1574-2224 partner limits assumed): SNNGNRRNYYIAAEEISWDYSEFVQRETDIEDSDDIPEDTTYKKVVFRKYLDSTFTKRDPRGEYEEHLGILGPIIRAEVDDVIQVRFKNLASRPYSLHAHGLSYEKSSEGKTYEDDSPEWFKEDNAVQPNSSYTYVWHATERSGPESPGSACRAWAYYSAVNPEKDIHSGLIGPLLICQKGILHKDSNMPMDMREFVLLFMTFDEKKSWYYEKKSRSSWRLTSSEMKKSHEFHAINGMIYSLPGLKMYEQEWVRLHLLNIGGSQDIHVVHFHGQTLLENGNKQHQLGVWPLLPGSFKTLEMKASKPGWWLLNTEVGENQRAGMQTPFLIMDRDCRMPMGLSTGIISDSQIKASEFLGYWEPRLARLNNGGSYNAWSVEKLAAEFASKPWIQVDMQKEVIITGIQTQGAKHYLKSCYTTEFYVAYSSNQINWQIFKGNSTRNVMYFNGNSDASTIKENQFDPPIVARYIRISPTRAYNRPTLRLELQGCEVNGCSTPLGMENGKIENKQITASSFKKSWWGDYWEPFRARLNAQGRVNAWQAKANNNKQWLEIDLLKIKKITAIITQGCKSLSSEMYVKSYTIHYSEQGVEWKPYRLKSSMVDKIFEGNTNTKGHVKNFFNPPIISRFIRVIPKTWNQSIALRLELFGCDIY
# Protocol: For determination of IC50 (PTase) of the compounds of the invention, PTase activity was expressed by thrombin activity.
# PTase reaction was performed in 100 μL of mixture containing PTase (20 μM) PCPS (Avanti Polar Lipids following a procedure modified from Barenholz et al., Biochemistry, 1977;16:2806-2810) in a 30:70 ratio, 2.5 nM human factor Va (Enzyme Research Laboratories), and 2.5 pM human factor Xa (Enzyme Research Laboratories) in modified HEPES buffer (10 mM Hepes, 150 mM NaCl, 0.1% PEG-8000, 0.05% BSA, 2.5 mM CaCl2, pH 7.4), 3 μM human prothrombin (Enzyme Research Laboratories) and varied concentrations of the test compounds (1 nM to 100 μM in DMSO, 2% final). Reaction was started by co-incubating PTase with test compound for 60 minutes at room temperature, followed by addition of prothrombin for 6 minutes at room temperature. Next, the reaction was quenched by the addition of 100 μL of 20 mM EDTA. Activity of the thrombin (product) is then measured in the presence of 50 μL S2238 (250 μM final, H-D-Phe-Pip-Arg-pNA*Ac, DiaPharma) as substrate by measuring the change at 37° C. in OD405 nm for 5 minutes at 10 second intervals using a ThermoMax® Kinetic Microplate Reader.
# [6] = tested on: pooled plasma from human volunteers; assay: In vitro diluted prothrombin time (dPT) assay; assay type: biochemical
# Protocol: Rat, rabbit, dog, and human blood (typically 1.8 mL) was collected and added to a sodium citrate solution (3.8%) to afford a 1:10 dilution. After centrifugation (2000 g for 10 minutes), the blood plasma was stored at −70° C. to 0° C. Conventional prothrombin time (PT) tests were carried out in the presence of various concentrations of test compound and the concentration of test compound required to double the clotting time determined. Typically, the test compound (50 μL volume of varying concentrations 0.1 μM to 1000 μM) and blood plasma (100 μL volume) were incubated at 37° C. for 10 minutes, and then tissue thromboplastin, typically Neoplastine from American Bioproducts, with calcium was added. Fibrin formation and the time required for a clot to form were determined using an automated ST4 Clot Detection System in duplicate.
# The effects of Example 2 on dPT were evaluated using pooled plasma from human volunteers.
# [7] = tested on: rabbit veno-venous shunt model of thrombosis; assay: Rabbit veno-venous shunt model of thrombosis; assay type: in vivo
# Protocol: The effects of Example 2 on thrombosis and hemostasis has been studied in a rabbit veno-venous shunt model of thrombosis. In that model, a plastic shunt which contains cotton thread was inserted into abdominal vena cava and thrombus developed inside the shunt under control conditions. The end points of the experiment are the time to occlusion (TTO) and thrombus weight. Example 2 was given to the rabbit via jugular vein as a single bolus followed by constant infusion for 140 minutes. Three doses have been tested in a total of 15 rabbits (5 rabbits in each group): 30 μg/kg+1 μg/kg/min, 60 μg/kg+2 μg/kg/min, and 480 μg/kg+16 μg/kg/min. […] In the highest dose group, TTO was increased from 17 minutes under control condition to 100 minutes. The net thrombus weight was reduced from 50 to 20 mg in that group. Example 2, at the highest dose, prolonged aPTT, PT, by 5-, and 3.9-fold, respectively.
# [8] = tested on: dog electrolytic injury model of thrombosis; assay: Dog electrolytic injury model of thrombosis; assay type: in vivo
# From the text: The effects of Example 2 on thrombosis and hemostasis has been studied in a dog electrolytic injury model of thrombosis. In this model, the thrombosis influencing event is an electrical current is applied to the femoral vein (or artery) by applying an anodal direct current (300 uA) to the intimal surface of the vessel in the presence of restricted blood flow (Goldblatt clamps placed around the vessel). The end points of the experiment are the time to occlusion (TTO) and thrombus weight. […] In the highest dose group, TTO was increased to near maximal effect of 240 minutes in both arteries and veins. The net thrombus weight was reduced from 50 mg to 18 mg [artery] and 110 mg to 15 mg [vein] in the highest dose group. Example 2, at the highest dose, prolonged aPTT, PT, by 1.4-, and 1.75-fold, respectively.
# [9] = three doses, bolus + infusion 140 minutes
# [10] = infusion 2.5, 5 and 10 μg/kg/min
# T1 sequence (P00742 235-488 limits assumed): as the sequence (P00742 235-488 limits assumed) above
# T1 sequence (P00742 41-179 limits assumed): as the sequence (P00742 41-179 limits assumed) above
smiles,measurement,setting,value
"C[C@@H]1CCC[C@H](C)N1CCCCCn1c(=O)c(-c2cccc(C(=N)N)c2)nc2ccccc21 [Example 1, 3-[3-(Amidino)phenyl]-1-{5-[(2R,6S)-2,6-dimethylhexahydro-1-pyridinyl]pentyl}-1,2-dihydro-2-quinoxalinone]",IC50,[1],65 nM
same,IC50,[2],2960 nM
same,IC50,[3],2030 nM
same,inhibition at 100 µM,[4],16%
"C[C@@H]1CCC[C@H](C)N1CCCCCn1c(=O)c(-c2cc(C(=N)N)ccc2O)nc2ccccc21 [Example 2, 3-(4-5-[(2R,6S)-2,6-dimethyltetrahydro-1(2H)-pyridinyl]pentyl-3-oxo-3,4-dihydro-2-quinoxalinyl)-4-hydroxybenzenecarboximidamide]",IC50,[1],9 nM
same,IC50,[2],7020 nM
same,IC50,[3],2450 nM
same,inhibition at 100 µM,[4],13%
same,IC50,[5],1.5 nM
same,concentration which caused 2 fold prolongation of dPT,[6],0.05 µM
same,fold increase in dPT,[6]; 0.1 μM,3.2 fold
same,effect on dPT,[6]; over concentrations,concentration-dependently prolonged dPT
same,prolongation of PT,[7]; highest dose,3.9 fold
same,prolongation of aPTT,[7]; highest dose,5 fold
same,net thrombus weight,"[7]; highest dose 480 μg/kg + 16 μg/kg/min iv, control 50 mg",20 mg
same,time to occlusion (TTO),"[7]; highest dose 480 μg/kg + 16 μg/kg/min iv, control 17 minutes",100 min
same,effect on net thrombus weight,[7]; [9],reduced the net thrombus weight
same,effect on time to occlusion,[7]; [9],dose-dependently prolonged the time to occlusion
same,prolongation of PT,[8]; highest dose,1.75 fold
same,prolongation of aPTT,[8]; highest dose,1.4 fold
same,time to occlusion (TTO),"[8]; highest dose 10 μg/kg/min infusion, both arteries and veins",~240 min
same,net thrombus weight [artery],"[8]; highest dose 10 μg/kg/min, artery, control 50 mg",18 mg
same,net thrombus weight [vein],"[8]; highest dose 10 μg/kg/min, vein, control 110 mg",15 mg
same,effect on net thrombus weight,[8]; [10],reduced the net thrombus weight
same,effect on time to occlusion,[8]; [10],dose-dependently prolonged the time to occlusion
